From US6737383B1, “Herbicidal oxadiazolidines” (priority 1999, dated 2004)

Key:
surinam grass = experiment: Test B pre/postemergence surinam grass; format: in vivo, Brachiaria decumbens
Method in brief: (§1)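 Herbicidal effect was estimated by eye on a ten-point control scale after plants spent twelve to sixteen days in a greenhouse following soil or foliar treatment. Foliar sprays targeted plants at one to four leaves; all doses were formulated in a non-phytotoxic solvent with surfactant.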

sugar beet = experiment: Test B pre/postemergence sugar beet; format: in vivo, Beta vulgaris
Method in brief: as §1

bedstraw = experiment: Test B pre/postemergence bedstraw; format: in vivo, Galium aparine
Method in brief: as §1

corn = experiment: Test B pre/postemergence corn; format: in vivo, Zea mays
Method in brief: as §1

giant foxtail = experiment: Test B pre/postemergence giant foxtail; format: in vivo, Setaria faberii
Method in brief: as §1

rice = experiment: Test B flood test rice; format: in vivo, Oryza sativa
Method in brief: (§2)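 Each value is a visual injury score relative to controls, with 10 meaning complete control and 0 no effect. Evaluation took place twelve to sixteen days after the 2-leaf-stage plants were treated and kept in the greenhouse.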

wheat = experiment: Test B pre/postemergence wheat; format: in vivo, Triticum aestivum
Method in brief: as §1

rape = experiment: Test B pre/postemergence rape; format: in vivo, Brassica napus
Method in brief: as §1

bamyardgrass = experiment: Test B flood test barnyardgrass; format: in vivo, Echinochloa crus-galli
Method in brief: as §2

velvetleaf = experiment: Test B pre/postemergence velvetleaf; format: in vivo, Abutilon theophrasti
Method in brief: as §1

smallflower flatsedge = experiment: Test B flood test smallflower flatsedge; format: in vivo, Cyperus difformis
Method in brief: as §2

wild oat = experiment: Test B pre/postemergence wild oat; format: in vivo, Avena fatua
Method in brief: as §1

crabgrass = experiment: Test B pre/postemergence crabgrass; format: in vivo, Digitaria sanguinalis
Method in brief: as §1

duck salad = experiment: Test B flood test duck salad; format: in vivo, Heteranthera limosa
Method in brief: as §2

purple nutsedge = experiment: Test B pre/postemergence purple nutsedge; format: in vivo, Cyperus rotundus
Method in brief: as §1

blackgrass = experiment: Test B pre/postemergence blackgrass; format: in vivo, Alopecurus myosuroides
Method in brief: as §1

[1] = Postemergence, Rate 31 g/ha, visual rating, scale 0 to 10 (0 no effect, 10 complete control)
[2] = Preemergence, Rate 31 g/ha, visual rating, scale 0 to 10 (0 no effect, 10 complete control)
[3] = Preemergence, Rate 62 g/ha, scale of 0 to 10 where 0 is no effect and 10 is complete control
[4] = Preemergence, Rate 250 g/ha, scale of 0 to 10 where 0 is no effect and 10 is complete control
[5] = Rate 62 g/ha, Postemergence, scale 0 to 10 (0 no effect, 10 complete control)
[6] = Rate 125 g/ha, Postemergence, scale of 0 to 10 where 0 is no effect and 10 is complete control
[7] = Rate 125 g/ha, Preemergence, scale of 0 to 10 where 0 is no effect and 10 is complete control
[8] = Rate 250 g/ha, Postemergence, scale of 0 to 10 where 0 is no effect and 10 is complete control
[9] = Rate 31 g/ha, Pre-emergence section (flood test species), scale 0 to 10
[10] = Rate 62 g/ha, headed Pre-emergence (flood test species), scale 0 to 10 (0 no effect, 10 complete control)
[11] = Rate 125 g/ha, Pre-emergence, flood test species, scale 0 to 10 where 0 is no effect and 10 is complete control
[12] = Rate 250 g/ha, Pre-emergence, flood-test species, scale 0 to 10, 0 is no effect, 10 is complete control

SMILES: CC(C)N(C(=O)n1oc(=O)n(CCCCF)c1=O)c1ccc(F)cc1 [Compound 289]
- B. signalgrass plant response rating (surinam grass; [1]): 0
- B. signalgrass plant response rating (surinam grass; [2]): 2
- B. signalgrass plant response rating (surinam grass; [3]): 7
- B. signalgrass plant response rating (surinam grass; [4]): 8
- B. signalgrass plant response rating (surinam grass; [5]): 0
- B. signalgrass plant response rating (surinam grass; [6]): 3
- B. signalgrass plant response rating (surinam grass; [7]): 7
- Plant response rating, B. signalgrass (surinam grass; [8]): 3
- Sugarbeets plant response rating (sugar beet; [1]): 0
- Sugarbeets plant response rating (sugar beet; [2]): 0
- Sugarbeets plant response rating (sugar beet; [3]): 2
- Sugarbeets plant response rating (sugar beet; [4]): 8
- Sugarbeets plant response rating (sugar beet; [5]): 0
- Sugarbeets plant response rating (sugar beet; [6]): 0
- Sugarbeets plant response rating (sugar beet; [7]): 6
- Plant response rating, Sugarbeets (sugar beet; [8]): 0
- Bedstraw plant response rating (bedstraw; [1]): 0
- Bedstraw plant response rating (bedstraw; [2]): 0
- Bedstraw plant response rating (bedstraw; [3]): 0
- Bedstraw plant response rating (bedstraw; [4]): 7
- Bedstraw plant response rating (bedstraw; [5]): 0
- Bedstraw plant response rating (bedstraw; [6]): 3
- Bedstraw plant response rating (bedstraw; [7]): 4
- Plant response rating, Bedstraw (bedstraw; [8]): 8
- Corn plant response rating (corn; [1]): 0
- Corn plant response rating (corn; [2]): 0
- Corn plant response rating (corn; [3]): 0
- Corn plant response rating (corn; [4]): 2
- Corn plant response rating (corn; [5]): 0
- Corn plant response rating (corn; [6]): 0
- Corn plant response rating (corn; [7]): 0
- Plant response rating, Corn (corn; [8]): 0
- Giant foxtail plant response rating (giant foxtail; [1]): 2
- Giant foxtail plant response rating (giant foxtail; [2]): 9
- Giant foxtail plant response rating (giant foxtail; [3]): 10
- Giant foxtail plant response rating (giant foxtail; [4]): 10
- Giant foxtail plant response rating (giant foxtail; [5]): 2
- Giant foxtail plant response rating (giant foxtail; [6]): 5
- Giant foxtail plant response rating (giant foxtail; [7]): 10
- Plant response rating, Giant foxtail (giant foxtail; [8]): 7
- Rice plant response rating (rice; [9]): 0
- Rice plant response rating (rice; [10]): 0
- Rice plant response rating (rice; [11]): 0
- Rice plant response rating (rice; [12]): 1
- Wheat plant response rating (wheat; [1]): 0
- Wheat plant response rating (wheat; [2]): 0
- Wheat plant response rating (wheat; [3]): 0
- Wheat plant response rating (wheat; [4]): 2
- Wheat plant response rating (wheat; [5]): 2
- Wheat plant response rating (wheat; [6]): 5
- Wheat plant response rating (wheat; [7]): 2
- Plant response rating, Wheat (wheat; [8]): 7
- Rape plant response rating (rape; [1]): 0
- Rape plant response rating (rape; [2]): 0
- Rape plant response rating (rape; [3]): 0
- Rape plant response rating (rape; [4]): 10
- Rape plant response rating (rape; [5]): 0
- Rape plant response rating (rape; [6]): 2
- Rape plant response rating (rape; [7]): 8
- Plant response rating, Rape (rape; [8]): 2
- Barnyardgrass plant response rating (bamyardgrass; [9]): 0
- Barnyardgrass plant response rating (bamyardgrass; [10]): 0
- Barnyardgrass plant response rating (bamyardgrass; [11]): 0
- Barnyardgrass plant response rating (bamyardgrass; [12]): 3
- Velvetleaf plant response rating (velvetleaf; [1]): 0
- Velvetleaf plant response rating (velvetleaf; [2]): 0
- Velvetleaf plant response rating (velvetleaf; [3]): 3
- Velvetleaf plant response rating (velvetleaf; [4]): 7
- Velvetleaf plant response rating (velvetleaf; [5]): 0
- Velvetleaf plant response rating (velvetleaf; [6]): 0
- Velvetleaf plant response rating (velvetleaf; [7]): 6
- Plant response rating, Velvetleaf (velvetleaf; [8]): 3
- S. Flatsedge plant response rating (smallflower flatsedge; [9]): 0
- S. Flatsedge plant response rating (smallflower flatsedge; [10]): 0
- S. Flatsedge plant response rating (smallflower flatsedge; [11]): 0
- S. Flatsedge plant response rating (smallflower flatsedge; [12]): 0
- Wild oats plant response rating (wild oat; [1]): 0
- Wild oats plant response rating (wild oat; [2]): 0
- Wild oats plant response rating (wild oat; [3]): 1
- Wild oats plant response rating (wild oat; [4]): 8
- Wild oats plant response rating (wild oat; [5]): 0
- Wild oats plant response rating (wild oat; [6]): 3
- Plant response rating, Wild oats (wild oat; [8]): 3
- Crabgrass plant response rating (crabgrass; [1]): 0
- Crabgrass plant response rating (crabgrass; [2]): 1
- Crabgrass plant response rating (crabgrass; [3]): 2
- Crabgrass plant response rating (crabgrass; [4]): 4
- Crabgrass plant response rating (crabgrass; [5]): 3
- Crabgrass plant response rating (crabgrass; [6]): 5
- Crabgrass plant response rating (crabgrass; [7]): 3
- Plant response rating, Crabgrass (crabgrass; [8]): 9
- Ducksalad plant response rating (duck salad; [9]): 0
- Ducksalad plant response rating (duck salad; [10]): 0
- Ducksalad plant response rating (duck salad; [11]): 0
- Ducksalad plant response rating (duck salad; [12]): 0
- Nutsedge plant response rating (purple nutsedge; [1]): 0
- Nutsedge plant response rating (purple nutsedge; [2]): 0
- Nutsedge plant response rating (purple nutsedge; [3]): 0
- Nutsedge plant response rating (purple nutsedge; [4]): 0
- Nutsedge plant response rating (purple nutsedge; [5]): 0
- Nutsedge plant response rating (purple nutsedge; [6]): 0
- Nutsedge plant response rating (purple nutsedge; [7]): 0
- Plant response rating, Nutsedge (purple nutsedge; [8]): 0
- Blackgrass plant response rating (blackgrass; [1]): 2
- Blackgrass plant response rating (blackgrass; [2]): 6
- Blackgrass plant response rating (blackgrass; [3]): 8
- Blackgrass plant response rating (blackgrass; [4]): 9
- Blackgrass plant response rating (blackgrass; [5]): 5
- Blackgrass plant response rating (blackgrass; [6]): 9
- Blackgrass plant response rating (blackgrass; [7]): 9
- Plant response rating, Blackgrass (blackgrass; [8]): 9
